Experimental data taken from publication PMC8924211 (Nature Communications, 2022).
Where a chain is given by its changes, count along the chain named.

Columns and labels:
Assay in all cases: Calcium assay, HEK293/Gα16 cells, GAL2R mutants
Type in all cases: cell-based
[1] = target: T1, GAL2R mutants (Homo sapiens, UniProt O43603, L255A); settings: GAL2R L2556.54A
T1 construct: expressed in transfected cells; host or cells: HEK293
T1 sequence (O43603 1-387 L255A): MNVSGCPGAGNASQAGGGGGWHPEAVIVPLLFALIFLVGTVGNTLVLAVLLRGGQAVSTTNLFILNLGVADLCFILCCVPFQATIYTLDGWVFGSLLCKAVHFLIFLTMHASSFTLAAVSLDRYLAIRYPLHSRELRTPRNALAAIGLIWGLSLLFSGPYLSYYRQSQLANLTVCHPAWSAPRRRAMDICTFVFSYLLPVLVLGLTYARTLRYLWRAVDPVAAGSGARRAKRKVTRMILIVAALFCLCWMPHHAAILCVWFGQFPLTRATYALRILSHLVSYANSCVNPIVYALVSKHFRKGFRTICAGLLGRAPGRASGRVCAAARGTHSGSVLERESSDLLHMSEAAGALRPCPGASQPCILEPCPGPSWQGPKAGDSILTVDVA

[2] = target: T2, GAL2R mutants (Homo sapiens, UniProt O43603, A170S); settings: GAL2R A170ECL2S
T2 construct: expressed in transfected cells; host or cells: HEK293
T2 sequence (O43603 1-387 A170S): T1 sequence (O43603 1-387 L255A) with A170S, A255L

[3] = target: T3, GAL2R mutants (Homo sapiens, UniProt O43603, L172A); settings: GAL2R L172ECL2A
T3 construct: expressed in transfected cells; host or cells: HEK293
T3 sequence (O43603 1-387 L172A): T1 sequence (O43603 1-387 L255A) with L172A, A255L

[4] = target: T4, GAL2R mutants (Homo sapiens, UniProt O43603, V259A); settings: GAL2R V2596.58A
T4 construct: expressed in transfected cells; host or cells: HEK293
T4 sequence (O43603 1-387 V259A): T1 sequence (O43603 1-387 L255A) with A255L, V259A

[5] = target: T5, GAL2R mutants (Homo sapiens, UniProt O43603, Y271A); settings: GAL2R Y2717.32A
T5 construct: expressed in transfected cells; host or cells: HEK293
T5 sequence (O43603 1-387 Y271A): T1 sequence (O43603 1-387 L255A) with A255L, Y271A

[6] = response of 100 μM spexin compared to WT, mean ± S.E.M.

Question: Which Emax [1, 6] does the source give for spexin here?
Answer: 26.65±5.9%

Question: What about the Emax ([1]; spexin, replicate 1) of the same substance?
Answer: 16.7892%

Question: And the EC50 ([1]; spexin, replicate 2)?
Answer: 0.2454 µM

Question: And the Emax ([1]; spexin, replicate 2)?
Answer: 26.0726%

Question: What about the EC50 ([1]; spexin, replicate 3) of the same substance?
Answer: 0.8451 µM

Question: What about the Emax ([1]; spexin, replicate 3) of the same substance?
Answer: 37.0775%

Question: What about the Emax [2, 6] of the same substance?
Answer: 17.66±5.3%

Question: What about the EC50 ([2]; spexin, replicate 1) of the same substance?
Answer: 0.0954 µM

Question: And the Emax ([2]; spexin, replicate 1)?
Answer: 11.3367%

Question: What about the EC50 ([2]; spexin, replicate 2) of the same substance?
Answer: 0.1514 µM

Question: What about the Emax ([2]; spexin, replicate 2) of the same substance?
Answer: 13.424%

Question: And the EC50 ([2]; spexin, replicate 3)?
Answer: 0.1506 µM

Question: What about the Emax ([2]; spexin, replicate 3) of the same substance?
Answer: 28.2269%

Question: And the Emax [3, 6]?
Answer: 33.56±1.2%

Question: And the EC50 ([3]; spexin, replicate 1)?
Answer: 3.125 µM

Question: What about the Emax ([3]; spexin, replicate 1) of the same substance?
Answer: 31.8616%

Question: What about the EC50 ([3]; spexin, replicate 2) of the same substance?
Answer: 10.79 µM

Question: And the Emax ([3]; spexin, replicate 2)?
Answer: 33.0538%

Question: What about the EC50 ([3]; spexin, replicate 3) of the same substance?
Answer: 12.08 µM

Question: And the Emax ([3]; spexin, replicate 3)?
Answer: 35.752%

Question: And the Emax [4, 6]?
Answer: 68.4±5.7%

Question: What about the EC50 ([4]; spexin, replicate 1) of the same substance?
Answer: 1.328 µM

Question: And the Emax ([4]; spexin, replicate 1)?
Answer: 60.401%

Question: What about the EC50 ([4]; spexin, replicate 2) of the same substance?
Answer: 6.622 µM

Question: And the Emax ([4]; spexin, replicate 2)?
Answer: 65.4165%

Question: And the EC50 ([4]; spexin, replicate 3)?
Answer: 6.153 µM

Question: And the Emax ([4]; spexin, replicate 3)?
Answer: 79.3756%

Question: And the Emax [5, 6]?
Answer: 22.23±2.2%

Question: And the EC50 ([5]; spexin, replicate 1)?
Answer: 5.958 µM

Question: What about the Emax ([5]; spexin, replicate 1) of the same substance?
Answer: 23.9745%

Question: And the EC50 ([5]; spexin, replicate 2)?
Answer: 1.581 µM

Question: And the Emax ([5]; spexin, replicate 2)?
Answer: 17.9395%

Question: What about the EC50 ([5]; spexin, replicate 3) of the same substance?
Answer: 0.7518 µM

Question: And the Emax ([5]; spexin, replicate 3)?
Answer: 24.7776%
